Assays:
DAT = tested on: DAT; set-up: method as in PMID 16885432; details: read-out: IC50, DAT-inhibiting power; cited from earlier work
hNET = target: T1, hNET (Homo sapiens, UniProt P23975); experiment: Uptake inhibition assay in HEK293 cells expressing hNET; type: cell-based
T1 construct: expressed in transfected cells
Procedure: (§1) Human embryonic kidney 293 cells (HEK293 cells) were cultivated in Dulbecco’s Modified Eagle Medium (DMEM), containing 10% heat-inactivated fetal calf serum (FCS; 100 mL/L), streptomycin (100 μg/100 mL) and penicillin ([…]). Geneticin (50 μg/mL) was added to select cells stably expressing the human isoforms of dopamine, norepinephrine and serotonin transporter (hDAT, hNET, and hSERT, respectively) as described earlier. Cell lines were maintained in culture in humidified atmosphere (37 °C, 5% CO2), and passaged when reached 80–90% confluency. Cells expressing the desired transporter were seeded the day before the experiment (40,000 cells per well) or two days before the experiments (20,000 cells per well) onto poly-D-lysine (PDL)-coated 96-well plates.
(§2) Uptake inhibition experiments were carried out as reported previously. Ninety-six-well plates containing hDAT-, hNET- or hSERT-expressing cells were washed with Krebs-HEPES buffer (KHB; 25 mM HEPES, 120 mM NaCl, 5 mM KCl, 1.2 mM CaCl2, and 1.2 mM MgSO4 and 5 mM D-glucose, pH = 7.3). Cells were then preincubated with increasing concentrations of the compound diluted in KHB for 6 min. Following the pre-incubation of the cells with the compound, the tritiated substrate (hDAT: 0.15 μM [^3H]DA; hNET: 0.05 μM [^3H]MPP^+; hSERT: 0.1 μM [^3H]5-HT) was added to the wells. The uptake was terminated by removal of tritiated substrate and by washing the cells with ice-cold KHB after 1 min (for hDAT and hSERT) or 3 min (for hNET). Thereafter, 200 μL of Ultima Gold^TM XR scintillation cocktail (PerkinElmer, MA, USA) was added, the plates were shaken and the radioactivity accumulated into the cells determined in a Wal-lac 1450 MicroBeta TriLux Liquid Scintillation Counter & Lumi (GMI, Ramsey, MN, USA). Non- specific tritiated substrate uptake was measured in the presence of 100 μM cocaine (for hDAT and hNET) or 10 μM paroxetine (for hSERT), and subtracted from the data. Uptake in the presence of test drugs was normalized to the uptake in the presence of the vehicle.

hDAT = target: T2, hDAT (Homo sapiens, UniProt Q01959); experiment: Uptake inhibition assay in HEK293 cells expressing hDAT; type: cell-based
T2 construct: expressed in transfected cells
Procedure: as §1, §2

hSERT = target: T3, hSERT (Homo sapiens, UniProt P31645); experiment: Uptake inhibition assay in HEK293 cells expressing hSERT; type: cell-based
T3 construct: expressed in transfected cells
Procedure: as §1
Uptake inhibition experiments were carried out as reported previously. […] Thereafter, 200 μL of Ultima Gold^TM XR scintillation cocktail (PerkinElmer, MA, USA) was added, the plates were shaken and the radioactivity accumulated into the cells determined in a Wal-lac 1450 MicroBeta TriLux Liquid Scintillation Counter & Lumi (GMI, Ramsey, MN, USA). Non- specific tritiated substrate uptake was measured in the presence of 100 μM cocaine (for hDAT and hNET) or 10 μM paroxetine (for hSERT), and subtracted from the data. […]

[1] = tested on: adult male Sprague Dawley rats; experiment: FR5/chow feeding choice task; type: in vivo, rat; details: 1.0 mg/kg TBZ plus vehicle vs vehicle plus vehicle
Procedure: Pharmacological agents: (S)-MK-26 was obtained from the Lubec Laboratory (University of Vienna, Austria) and dissolved in dimethyl sulfoxide (DMSO) (10%), Tween 80 (15%), and 0.9% saline (75%). The DMSO/Tween 80/saline mixture was administered as the vehicle control. The dose range was selected as 3.75–45.0 mg/kg based on its DAT affinity and pilot studies. It was administered 30 min before testing. TBZ (9,10-dimethoxy3-(2-methylpropyl)-1,3,4,6,7, 11b hexahydrobenzo[a]quinolizin2-one) was obtained from Tocris Bioscience (Ellisville, MO) and was dissolved in DMSO (20%) and 0.9% saline (80%) and was titrated with 1.0 N HCl until the drug was dissolved at a pH of 4.0–4.5. The DMSO/saline solution with equal amounts of HCl was administered as the vehicle control. The selected dose was 1.0mg/kg based on the previous research from our laboratory. It was administered 120 min prior to testing.
FR5/chow feeding choice task: A total of 8 adult male Sprague Dawley rats (Envigo Sprague Dawley, Indianapolis, IN, USA; weights 275–299 g upon arrival) were pair-housed in a colony maintained at 23 °C, with a 12 h light/dark cycle (lights on 07:00). Rats were food deprived to 85% of their free-feeding body weight with modest growth throughout the experiment and water was available ad libitum in their home cages. All the animal protocols were approved by the University of Connecticut Institutional Animal Care and Use Committee, and the experiments were completed according to National Institutes of Health guidelines.
Behavioral sessions were conducted in operant chambers (28 × 23 × 23 cm^3; Med Associates, Fairfax, VT, USA) with 30 min sessions 5 days/week. Rats were initially trained to lever press on magazine training for 3 days, followed by an FR1 schedule for 3 days (high-carbohydrate 45-mg pellets, Bio-Serv, Frenchtown, NJ, USA), and then moved to the FR5 schedule. After 5 weeks of training on the FR5 schedule, lab chow was introduced as the concurrently available choice food (Laboratory Diet, 5P00 Prolab RMH 3000, Purina Mills, St. Louis, MO, USA; typically 15–20 g). At the end of each session, rats were immediately removed from the chambers. The number of lever pressing was recorded and the amount of consumed chow was calculated by weighing the remaining food, including spillage. Rats were trained on the FR5/chow feeding choice task for 5 weeks, after which drug testing began.
To test the effects of (S)-MK-26 on FR5/Chow feeding choice task, trained rats were administered either with TBZ (1.0 mg/kg) or vehicle 120 min before testing, and (S)-MK-26 also with doses of 15.0, 30.0, 45.0 mg/kg or vehicle 30 min before testing, via intraperitoneal (IP) injections on drug testing days. A repeated-measures design was utilized where each rat received each drug treatment in a randomly varied order, once per week. The following five treatment combinations were given: TBZ vehicle + (S)-MK-26 vehicle; 1.0 mg/kg TBZ + (S)-MK-26 vehicle; 1.0 mg/kg TBZ + 15.0 mg/kg (S)-MK-26; 1.0 mg/kg TBZ + 30.0 mg/kg (S)-MK-26; 1.0 mg/kg TBZ + 45.0 mg/kg (S)-MK-26. Next, to see if the effects of lower doses, the following four treatment combinations were given in a repeated measure design: TBZ vehicle + (S)-MK-26 vehicle; 1.0 mg/kg TBZ + (S)-MK-26 vehicle; 1.0 mg/kg TBZ + 3.75 mg/kg (S)-MK-26; 1.0 mg/kg TBZ + 7.5 mg/kg (S)-MK-26.

T1 sequence (P23975 whole entry): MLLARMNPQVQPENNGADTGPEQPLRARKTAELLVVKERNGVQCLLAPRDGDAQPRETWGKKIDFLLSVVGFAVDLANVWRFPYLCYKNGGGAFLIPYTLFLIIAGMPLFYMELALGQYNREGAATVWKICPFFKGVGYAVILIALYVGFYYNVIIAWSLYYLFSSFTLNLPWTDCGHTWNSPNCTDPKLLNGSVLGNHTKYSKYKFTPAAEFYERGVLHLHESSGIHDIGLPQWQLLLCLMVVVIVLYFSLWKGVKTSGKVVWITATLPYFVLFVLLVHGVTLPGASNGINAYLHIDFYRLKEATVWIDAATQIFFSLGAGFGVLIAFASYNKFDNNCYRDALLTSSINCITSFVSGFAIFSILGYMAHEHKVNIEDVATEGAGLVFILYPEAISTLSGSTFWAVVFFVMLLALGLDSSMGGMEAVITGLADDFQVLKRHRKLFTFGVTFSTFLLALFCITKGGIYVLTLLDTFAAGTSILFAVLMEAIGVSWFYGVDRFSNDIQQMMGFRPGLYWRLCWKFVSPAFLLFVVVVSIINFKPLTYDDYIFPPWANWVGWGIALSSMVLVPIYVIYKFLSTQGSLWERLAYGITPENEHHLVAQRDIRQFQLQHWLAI
T3 sequence (P31645 whole entry): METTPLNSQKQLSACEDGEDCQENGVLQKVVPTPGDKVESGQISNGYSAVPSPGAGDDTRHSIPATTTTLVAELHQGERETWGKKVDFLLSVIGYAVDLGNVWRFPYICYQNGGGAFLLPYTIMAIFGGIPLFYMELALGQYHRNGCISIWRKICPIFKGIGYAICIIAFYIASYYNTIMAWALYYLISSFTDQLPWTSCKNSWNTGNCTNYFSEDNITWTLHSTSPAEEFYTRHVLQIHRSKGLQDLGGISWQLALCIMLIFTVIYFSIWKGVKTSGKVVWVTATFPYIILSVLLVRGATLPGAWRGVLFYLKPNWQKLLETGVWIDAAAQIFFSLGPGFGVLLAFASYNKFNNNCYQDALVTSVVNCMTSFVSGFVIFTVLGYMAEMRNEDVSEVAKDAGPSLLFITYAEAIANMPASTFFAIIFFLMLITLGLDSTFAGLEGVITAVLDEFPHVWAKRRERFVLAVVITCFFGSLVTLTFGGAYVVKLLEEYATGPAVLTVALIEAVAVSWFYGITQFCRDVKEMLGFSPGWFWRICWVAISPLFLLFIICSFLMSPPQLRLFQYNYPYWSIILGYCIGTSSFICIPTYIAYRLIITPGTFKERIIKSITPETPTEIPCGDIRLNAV
T2 sequence (Q01959 whole entry): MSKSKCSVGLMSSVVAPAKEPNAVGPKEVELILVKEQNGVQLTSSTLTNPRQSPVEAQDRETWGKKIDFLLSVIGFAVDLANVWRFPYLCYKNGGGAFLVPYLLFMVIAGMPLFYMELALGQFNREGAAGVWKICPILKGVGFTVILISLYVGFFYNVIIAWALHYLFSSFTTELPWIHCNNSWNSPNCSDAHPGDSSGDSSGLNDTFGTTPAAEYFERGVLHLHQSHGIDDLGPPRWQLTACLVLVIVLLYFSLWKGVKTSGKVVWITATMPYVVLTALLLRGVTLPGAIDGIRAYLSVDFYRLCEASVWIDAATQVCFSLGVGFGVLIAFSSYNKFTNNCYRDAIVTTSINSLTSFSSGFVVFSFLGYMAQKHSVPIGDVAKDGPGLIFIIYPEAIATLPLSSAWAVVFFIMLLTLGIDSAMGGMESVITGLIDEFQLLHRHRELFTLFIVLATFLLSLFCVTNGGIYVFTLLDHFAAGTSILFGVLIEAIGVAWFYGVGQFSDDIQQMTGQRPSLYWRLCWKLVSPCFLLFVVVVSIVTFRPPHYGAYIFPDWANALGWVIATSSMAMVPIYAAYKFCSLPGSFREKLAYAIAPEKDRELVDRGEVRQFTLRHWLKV

Question: For `[O-][S@+](Cc1cncs1)C(c1cccc(Cl)c1)c1cccc(Cl)c1` [(R)-MK-26, (R)-5-(((bis(3-chlorophenyl)methyl)sulphinyl)methyl)thiazole], which IC50 (hNET) is on record?
Answer: Its IC50 is 2160 µM.

Question: What about the IC50 (hDAT) of the same molecule?
Answer: The IC50 was 36.3 µM.

Question: And the IC50 (hSERT)?
Answer: Its IC50 is over 1000 µM.

Question: For `NC(=O)C[S@@+]([O-])C(c1ccccc1)c1ccccc1` [(R)-Modafinil, reference compound], which IC50 (hNET) is on record?
Answer: Its IC50 is 127 µM.

Question: For `COc1cc2c(cc1OC)C1CC(=O)C(CC(C)C)CN1CC2` (stereo not shown) [TBZ, 9,10-dimethoxy3-(2-methylpropyl)-1,3,4,6,7, 11b hexahydrobenzo[a]quinolizin2-one, reference compound], which “effect on chow intake” value [1] is on record?
Answer: The value was “increasing chow intake”.

Question: What about the “effect on lever pressing” value [1] of the same molecule?
Answer: The value was “decreasing lever pressing”.

Reference: paper PMC9312958, “A Novel and Selective Dopamine Transporter Inhibitor, (S)-MK-26, Promotes Hippocampal Synaptic Plasticity and Restores Effort-Related Motivational Dysfunctions” (Biomolecules, 2022)
